US11807625B2, “Capsid inhibitors for the prevention of HIV” (Gilead Sciences, Inc., priority 2019, dated 2023)

Test: PK of compound of Formula (Ia) after single subcutaneous dose of solution formulations in Wistar Han rats
Type: in vivo
Settings: male, Wistar Han, rat, plasma, sc, 50 mg/kg, Wistar Han rats, SC 50 mg/kg
Description: Formulations containing the compound of Formula (Ia), or a pharmaceutically acceptable salt thereof, were prepared as solutions and optionally administered subcutaneously or intramuscularly to rats, rabbits, and/or dogs.
A solution of about 400 mg/mL of the compound of Formula (Ia) having 19.14 w/w % water, 40.66 w/w % PEG 300, 35.20 w/w % of a sodium salt of a compound of Formula (Ia), and 5.00% ethanol was prepared. The solution was administered subcutaneously to male Wistar Han rats at a dose level of about 50 mg/kg and dose volume of 0.125 mL/kg and the pharmacokinetic (PK) profile was determined.
A solution of about 500 mg/mL of the compound of Formula (Ia) having 16.64 w/w % water, 35.36 w/w % PEG 300, 43.00 w/w % of a sodium salt of a compound of Formula (Ia), and 5.00% ethanol was prepared. The solution was administered subcutaneously to male Wistar Han rats at a dose level of about 50 mg/kg and dose volume of 0.1 mL/kg and the pharmacokinetic (PK) profile was determined.
A solution of about 400 mg/mL of the compound of Formula (Ia) having 17.00 w/w % water, 36.40 w/w % PEG 300, 35.20 w/w % of a sodium salt of a compound of Formula (Ia), 5.00 w/w % ethanol, and 6.40 w/w % poloxamer 188 was prepared. The solution was administered subcutaneously to male beagle dogs at a dose level of about 12 mg/kg and male Wistar Han rats at a dose level of about 50 mg/kg. The pharmacokinetic profiles were determined, and the results for dogs are summarized in Table and Table, while the results for rats are summarized in Table and Table below.
A solution of about 500 mg/mL of the compound of Formula (Ia) having 14.06 w/w % water, 30.12 w/w % PEG 300, […] of a sodium salt of a compound of Formula (Ia), 5.00 w/w % ethanol, and 6.40 w/w % poloxamer 188 was prepared. The solution was administered subcutaneously to male beagle dogs at a dose level of about 12 mg/kg and male Wistar Han rats at a dose level of about 50 mg/kg. The pharmacokinetic profiles were determined, and the results for dogs are summarized in Table and Table, while the results for rats are summarized in Table and Table below.
A solution of about 300 mg/mL of the compound of Formula (Ia) having 23.33 w/w % water, 48.99 w/w % PEG 300, 26.47 w/w % of a sodium salt of a compound of Formula (Ia), and 1.21 w/w % poloxamer 188 was prepared. The solution was administered subcutaneously to male beagle dogs at a dose level of about 6 mg/kg and male Wistar Han rats at a dose level of about 50 mg/kg. The pharmacokinetic profiles were determined, and the results for dogs are summarized in Table and Table, while the results for rats are summarized in Table and Table below.
A solution of about 400 mg/mL of the compound of Formula (Ia) having 18.80 w/w % water, 40.25 w/w % PEG 300, 34.38 w/w % of a sodium salt of a compound of Formula (Ia), 5.00 w/w % ethanol, and 1.57 w/w % poloxamer 188 was prepared. The solution was administered subcutaneously to male beagle dogs at a dose level of about 12 mg/kg and male Wistar Han rats at a dose level of about 50 mg/kg. The pharmacokinetic profiles were determined, and the results for dogs are summarized in Table and Table, while the results for rats are summarized in Table and Table below.
A solution of about 500 mg/mL of the compound of Formula (Ia) having 16.29 w/w % water, 34.88 w/w % PEG 300, 41.92 w/w % of a sodium salt of a compound of Formula (Ia), 5.00 w/w % ethanol, and 1.91 w/w % poloxamer 188 was prepared. The solution was administered subcutaneously to male beagle dogs at a dose level of about 12 mg/kg and male Wistar Han rats at a dose level of about 50 mg/kg. The pharmacokinetic profiles were determined, and the results for dogs are summarized in Table and Table, while the results for rats are summarized in Table and Table below.
A solution of about 400 mg/mL of the compound of Formula (Ia) having 20.90 w/w % water, 44.72 w/w % PEG 300, and 34.38 w/w % of a sodium salt of a compound of Formula (Ia) was prepared. […]

[1] = 400 mg/mL solution AA (6.25% poloxamer 188), Mean n = 4
[2] = 400 mg/mL solution W (5.00% ethanol, 1.57% poloxamer 188), Mean n = 3
[3] = 400 mg/mL solution W (5.00% ethanol, 1.57% poloxamer 188), animals #1-#3
[4] = 400 mg/mL solution Y (water, PEG 300), Mean n = 4
[5] = 400 mg/mL solution Y (water, PEG 300), animals #1-#4
[6] = 400 mg/mL solution Z (3.13% poloxamer 188), Mean n = 4
[7] = 400 mg/mL solution Z (3.13% poloxamer 188), animals #1-#4
[8] = 400 mg/mL solution Z (3.13% poloxamer 188), Mean (#2 NS)
[9] = 400 mg/mL solution Z (3.13% poloxamer 188), animals #1, #3, #4 (#2 NS)
[10] = 500 mg/mL solution X (5.00% ethanol, 1.91% poloxamer 188), Mean n = 3
[11] = 500 mg/mL solution X (5.00% ethanol, 1.91% poloxamer 188), animals #1-#3

SMILES: CC(C)(C#Cc1ccc(-c2ccc(Cl)c3c(NS(C)(=O)=O)nn(CC(F)(F)F)c23)c([C@H](Cc2cc(F)cc(F)c2)NC(=O)Cn2nc(C(F)(F)F)c3c2C(F)(F)[C@@H]2C[C@H]32)n1)S(C)(=O)=O [compound of Formula (Ia)]
- concentration at 2016 h [1]: 78.2 nM
- concentration at 2352 h [1]: 75.4 nM
- concentration at 2688 h [1]: 74.6 nM
- concentration at 3024 h [1]: 69.8 nM
- concentration at 3360 h [1]: 64.1 nM
- concentration at 3696 h [1]: 65.7 nM
- concentration at 1 h [2]: 30.6 nM
- concentration at 3 h [2]: 53.4 nM
- concentration at 8 h [2]: 76.9 nM
- concentration at 24 h [2]: 120 nM
- concentration at 24 h [3]: 127 nM
- concentration at 48 h [2]: 152 nM
- concentration at 48 h [3]: 128 nM
- concentration at 72 h [2]: 152 nM
- concentration at 72 h [3]: 112 nM
- concentration at 96 h [2]: 138 nM
- concentration at 96 h [3]: 98.6 nM
- concentration at 168 h [2]: 118 nM
- concentration at 168 h [3]: 80 nM
- concentration at 336 h [2]: 171 nM
- concentration at 336 h [3]: 123 nM
- concentration at 504 h [2]: 248 nM
- concentration at 504 h [3]: 194 nM
- concentration at 672 h [2]: 261 nM
- concentration at 672 h [3]: 217 nM
- concentration at 840 h [2]: 290 nM
- concentration at 840 h [3]: 273 nM
- concentration at 1008 h [2]: 239 nM
- concentration at 1008 h [3]: 176 nM
- concentration at 1344 h [2]: 305 nM
- concentration at 1344 h [3]: 260 nM
- concentration at 1680 h [2]: 261 nM
- concentration at 1680 h [3]: 206 nM
- concentration at 2016 h [2]: 201 nM
- concentration at 2016 h [3]: 163 nM
- concentration at 2352 h [2]: 162 nM
- concentration at 2352 h [3]: 164 nM
- concentration at 2688 h [2]: 173 nM
- concentration at 2688 h [3]: 170 nM
- concentration at 3024 h [2]: 131 nM
- concentration at 3024 h [3]: 145 nM
- concentration at 3360 h [2]: 129 nM
- concentration at 3360 h [3]: 151 nM
- concentration at 3696 h [2]: 107 nM
- concentration at 3696 h [3]: 133 nM
- concentration at 4032 h (400 mg/mL solution W (5.00% ethanol, 1.57% poloxamer 188), 4032 h, Mean n = 3): 97.5 nM
- concentration at 4704 h (400 mg/mL solution W (5.00% ethanol, 1.57% poloxamer 188), 4704 h, Mean n = 3): 57.9 nM
- concentration at 1 h [4]: 28.6 nM
- concentration at 1 h [5]: 28.7 nM
- concentration at 3 h [4]: 52.2 nM
- concentration at 3 h [5]: 51.3 nM
- concentration at 8 h [4]: 65.8 nM
- concentration at 8 h [5]: 62.1 nM
- concentration at 24 h [4]: 93.2 nM
- concentration at 24 h [5]: 72.1 nM
- concentration at 48 h [4]: 110 nM
- concentration at 48 h [5]: 83 nM
- concentration at 72 h [4]: 109 nM
- concentration at 72 h [5]: 87.1 nM
- concentration at 96 h [4]: 95.3 nM
- concentration at 168 h [4]: 85.7 nM
- concentration at 336 h [4]: 103 nM
- concentration at 504 h [4]: 131 nM
- concentration at 672 h [4]: 151 nM
- concentration at 840 h [4]: 158 nM
- concentration at 1008 h [4]: 162 nM
- concentration at 1344 h [4]: 159 nM
- concentration at 1680 h [4]: 132 nM
- concentration at 2016 h [4]: 117 nM
- concentration at 2352 h [4]: 118 nM
- concentration at 2688 h [4]: 119 nM
- concentration at 3024 h [4]: 105 nM
- concentration at 3360 h [4]: 95.2 nM
- concentration at 3696 h [4]: 90.4 nM
- concentration at 1 h [6]: 41.7 nM
- concentration at 3 h [6]: 70.3 nM
- concentration at 8 h [6]: 85.9 nM
- concentration at 24 h [6]: 144 nM
- concentration at 48 h [6]: 165 nM
- concentration at 72 h [6]: 163 nM
- concentration at 96 h [6]: 147 nM
- concentration at 168 h [6]: 135 nM
- concentration at 336 h [6]: 169 nM
- concentration at 504 h [6]: 166 nM
- concentration at 672 h [6]: 172 nM
- concentration at 672 h [7]: 163 nM
- concentration at 840 h [6]: 174 nM
- concentration at 1008 h [6]: 164 nM
- concentration at 1008 h [7]: 137 nM
- concentration at 1344 h [6]: 138 nM
- concentration at 1344 h [7]: 113 nM
- concentration at 1680 h [6]: 127 nM
- concentration at 1680 h [7]: 108 nM
- concentration at 2016 h [6]: 127 nM
- concentration at 2016 h [7]: 111 nM
- concentration at 2352 h [6]: 127 nM
- concentration at 2352 h [7]: 101 nM
- concentration at 2688 h [6]: 141 nM
- concentration at 2688 h [7]: 118 nM
- concentration at 3024 h [6]: 133 nM
- concentration at 3024 h [7]: 110 nM
- concentration at 3360 h [8]: 133 nM
- concentration at 3360 h [9]: 109 nM
- concentration at 3696 h [8]: 135 nM
- concentration at 3696 h [9]: 91.2 nM
- concentration at 1 h [10]: 46.8 nM
- concentration at 3 h [10]: 77.6 nM
- concentration at 3 h [11]: 89 nM
- concentration at 8 h [10]: 96.2 nM
- concentration at 8 h [11]: 115 nM
- concentration at 24 h [10]: 184 nM
- concentration at 24 h [11]: 164 nM
- concentration at 48 h [10]: 209 nM
- concentration at 48 h [11]: 209 nM
- concentration at 72 h [10]: 199 nM
- concentration at 72 h [11]: 207 nM
- concentration at 96 h [10]: 187 nM
- concentration at 96 h [11]: 193 nM
- concentration at 168 h [10]: 176 nM
- concentration at 168 h [11]: 204 nM
- concentration at 336 h [10]: 233 nM
- concentration at 336 h [11]: 269 nM
- concentration at 504 h [10]: 270 nM
- concentration at 504 h [11]: 311 nM
- concentration at 672 h [10]: 270 nM
- concentration at 672 h [11]: 312 nM
- concentration at 840 h [10]: 294 nM
- concentration at 840 h [11]: 361 nM
- concentration at 1008 h [10]: 235 nM
- concentration at 1008 h [11]: 209 nM
- concentration at 1344 h [10]: 272 nM
- concentration at 1344 h [11]: 314 nM
- concentration at 1680 h [10]: 247 nM
- concentration at 1680 h [11]: 206 nM
- concentration at 2016 h [10]: 193 nM
- concentration at 2016 h [11]: 161 nM
- concentration at 2352 h [10]: 158 nM
- concentration at 2352 h [11]: 111 nM
